In patent US20070092577A1, “Dietary calcium for reducing the production of reactive oxygen species” (University of Tennessee Research Foundation, priority 2005, published 2007):

Key:
TNFα [1] = assay: TNFα expression in RAW 264 macrophages; type: cell-based; conditions: added to calcitriol; macrophages cultured alone
Procedure: (§1) RAW 264 macrophages and 3T3-L1 preadipocytes (American Type Culture Collection) were incubated at a density of 8000 cells/cm2 (10 cm2 dish) and grown in Dulbecco's modified Eagle's medium (DMEM) containing 10% FBS and antibiotics (adipocyte medium) at 37° C. in 5% CO2 in air. Confluent 3T3-L1 preadipocytes were induced to differentiate with a standard differentiation medium consisting of DMEM-F10 (1:1, vol/vol) medium supplemented with 1% FBS, 1 μM dexamethasone, IBMX (0.5 mM) and antibiotics (1% Penicillin-Streptomycin). Preadipocytes were maintained in this differentiation medium for 3 days and subsequently cultured in adipocyte medium. Cultures were re-fed every 2-3 days to allow 90% cells to reach fully differentiation for 3T3-L1 adipocytes or grow to a confluence for RAW 264 before conducting chemical treatment.
(§2) Human adipocytes (Zen-Bio, Inc.), 3T3-L1 adipocytes, RAW264 macrophages were obtained and co-cultured by using transwell inserts with 0.4 μm porous membranes (Corning) to separate adipocytes and macrophages. All data are expressed as mean±SEM. Data were evaluated for statistical significance by analysis of one-way or two-way variance (ANOVA; means with different letter differ, p<0.05).
(§3) Adipocyte and muscle 18s, CD14, TNFα, MIP, M-CSF, IL-6 and MCP-1 were quantitatively measured using a Smart Cycler Real Time PCR System (Cepheid, Sunnyvale, Calif.) with a TaqMan 1000 Core Reagent Kit (Applied Biosystems, Branchburg, N.J.). The primers and probe sets were obtained from Applied Biosystems TaqMan® Assays-on-Demand™ Gene Expression primers and probe set collection according to manufacture's instruction. […] Reactions of quantitative RT-PCR for standards and unknown samples were also performed according to the instructions of Smart Cycler System (Cepheid, Sunnyvale, Calif.) and TaqMan Real Time PCR Core Kit (Applied Biosystems, Branchburg, N.J.). The mRNA quantitation for each sample was further normalized using the corresponding 18s quantitation.

IL-6 = IL-6 expression in RAW 264 macrophages; type: cell-based; conditions: added to calcitriol; macrophages cultured alone
Procedure: as §1, §2, §3

[2] = system: ROS production in cultured 3T3-L1 adipocytes; assay: ROS production in cultured adipocytes (H2-DCFDA); type: cell-based, murine; conditions: 48 hours
Procedure: 3T3-L1 preadipocytes were incubated at a density of 8000 cells/cm^2 (10 cm^2 dish) and grown in Dulbecco's modified Eagle's medium (DMEM) containing 10% FBS and antibiotics (adipocyte medium) at 37° C. in 5% CO2 in air. Confluent preadipocytes were induced to differentiate with a standard differentiation medium consisting of DMEM-F 10 (1:1, vol/vol) medium supplemented with 1% FBS, 1 μM dexamethasone, IBMX (0.5 mM) and antibiotics (1% Penicillin-Streptomycin). Preadipocytes were maintained in this differentiation medium for 3 days and subsequently cultured in adipocyte medium. Cultures were re-fed every 2-3 days to allow 90% of cells to reach full differentiation before conducting chemical treatment. Chemicals were freshly diluted in adipocyte medium before treatment. Cells were washed with fresh adipocyte medium, re-fed with medium containing the different treatments, and incubated at 37° C. in 5% CO2 in air before analysis. Cell viability was measured via trypan blue exclusion. […] Cells were loaded with H2-DCFDA (2 μmol/L) 30 minute before the end of the incubation period (48 h). After washing twice with PBS, cells were scraped and disrupted by sonication on ice (20s). Fluorescence (emission 543 nm or 527 nm) and DNA content were then measured as described previously. The intensity of fluorescence was expressed as arbitary units per ng DNA.

TNFα [3] = assay: TNFα expression in differentiated 3T3-L1 adipocytes; type: cell-based, mouse; conditions: nifedipine 10 μmol/L alone, 48 h
Procedure: 3T3-L1 pre-adipocytes were incubated at a density of 8000 cells/cm^2 (10 cm^2 dish) and grown in Dulbecco's modified Eagle's medium (DMEM) containing 10% FBS and antibiotics (adipocyte medium) at 37° C. in 5% CO2 in air. Confluent pre-adipocytes were induced to differentiate with a standard differentiation medium consisting of DMEM-F10 (1:1, vol/vol) medium supplemented with 1% fetal bovine serum (FBS), 1 μM dexamethasone, isobutylmethylxanthine (IBMX) (0.5 mM) and antibiotics (1% Penicillin-Streptomycin). Pre-adipocytes were maintained in this differentiation medium for 3 days and subsequently cultured in adipocyte medium. Cultures were re-fed every 2-3 days to allow 90% cells to reach fully differentiation before conducting chemical treatment. […] Cell viability was measured via trypan blue exclusion. Adipocyte and muscle 18s, TNFα, IL-6, IL-8, IL-15 and adiponectin were quantitatively measured using a smart cycler real-time PCR system (Cepheid, Sunnyvale, Calif.) with a TaqMan 1000 Core Reagent Kit (Applied Biosystems, Branchburg, N.J.). […] Reactions of quantitative RT-PCR for standards and unknown samples were also performed according to the instructions of Smart Cycler System (Cepheid, Sunnyvale, Calif.) and TaqMan Real Time PCR Core Kit (Applied Biosystems, Branchburg, N.J.). The mRNA quantitation for each sample was further normalized using the corresponding 18s quantitation.

IL-15 = IL-15 expression in differentiated Zen-bio human adipocytes; type: cell-based; conditions: 10 nmol/L 1α, 25-(OH)2-D3 or 10 μmol/L nifedipine, 48 h; p=0.473
Procedure: (§4) Human pre-adipocytes used in this study were supplied by Zen-Bio (Research Triangle, N.C.). […] The cells are isolated from the stromal vascular fraction of human subcutaneous adipose tissue and differentiated in vitro as follows: […] Preadipocytes were maintained in this differentiation medium for 3 days and subsequently cultured in adipocyte medium in which BRL49653 and MIX were omitted. Cultures were re-fed every 2-3 days till fully differentiated. Cells were incubated in serum free medium overnight before chemical treatment. Chemicals were freshly diluted in adipocyte medium before treatment. […] Cell viability was measured via trypan blue exclusion. Adipocyte and muscle 18s, TNFα, IL-6, IL-8, IL-15 and adiponectin were quantitatively measured using a smart cycler real-time PCR system (Cepheid, Sunnyvale, Calif.) with a TaqMan 1000 Core Reagent Kit (Applied Biosystems, Branchburg, N.J.). […] Reactions of quantitative RT-PCR for standards and unknown samples were also performed according to the instructions of Smart Cycler System (Cepheid, Sunnyvale, Calif.) and TaqMan Real Time PCR Core Kit (Applied Biosystems, Branchburg, N.J.). The mRNA quantitation for each sample was further normalized using the corresponding 18s quantitation.

adiponectin = assay: Adiponectin expression in differentiated Zen-bio human adipocytes; type: cell-based; conditions: 10 nmol/L 1α, 25-(OH)2-D3 or 10 μmol/L nifedipine, 48 h; p=0.377
Procedure: as §4

3T3-L1 adipocytes = assay: DNA synthesis / cell proliferation (CyQUANT); type: cell-based, murine; conditions: 48 hours
Procedure: 3T3-L1 preadipocytes were incubated at a density of 8000 cells/cm^2 (10 cm^2 dish) and grown in Dulbecco's modified Eagle's medium (DMEM) containing 10% FBS and antibiotics (adipocyte medium) at 37° C. in 5% CO2 in air. Confluent preadipocytes were induced to differentiate with a standard differentiation medium consisting of DMEM-F 10 (1:1, vol/vol) medium supplemented with 1% FBS, 1 μM dexamethasone, IBMX (0.5 mM) and antibiotics (1% Penicillin-Streptomycin). Preadipocytes were maintained in this differentiation medium for 3 days and subsequently cultured in adipocyte medium. Cultures were re-fed every 2-3 days to allow 90% of cells to reach full differentiation before conducting chemical treatment. Chemicals were freshly diluted in adipocyte medium before treatment. Cells were washed with fresh adipocyte medium, re-fed with medium containing the different treatments, and incubated at 37° C. in 5% CO2 in air before analysis. Cell viability was measured via trypan blue exclusion. Cells were plated in DMEM with different treatment in duplicate in 96-well plates. After 48 h, a CyQUANT Cell Proliferation Kit (Molecular Probes, Eugene, Oreg.) was used following the manufacturer's protocol a microplate fluorometer (Packard Instrument Company, Inc., Downers Grove, Ill.) was used to measure CyQUANT fluorescence. Cell viability was determined by Trypan blue exclusion examination.

[4] = system: Mitochondrial potential in cultured wild-type 3T3-L1 adipocytes; assay: Mitochondrial membrane potential (JC-1); type: cell-based, murine; conditions: GDP 100 μmol/L with H2O2 100 nmol/L, 48 hours
Procedure: 3T3-L1 preadipocytes were incubated at a density of 8000 cells/cm^2 (10 cm^2 dish) and grown in Dulbecco's modified Eagle's medium (DMEM) containing 10% FBS and antibiotics (adipocyte medium) at 37° C. in 5% CO2 in air. Confluent preadipocytes were induced to differentiate with a standard differentiation medium consisting of DMEM-F 10 (1:1, vol/vol) medium supplemented with 1% FBS, 1 μM dexamethasone, IBMX (0.5 mM) and antibiotics (1% Penicillin-Streptomycin). Preadipocytes were maintained in this differentiation medium for 3 days and subsequently cultured in adipocyte medium. Cultures were re-fed every 2-3 days to allow 90% of cells to reach full differentiation before conducting chemical treatment. Chemicals were freshly diluted in adipocyte medium before treatment. […] Cell viability was measured via trypan blue exclusion.
Mitochondrial membrane potential was analyzed fluorometrically with a lipophilic cationic dye JC-1 (5,5′,6,6′-tetrachloro-1,1′,3,3′-tetraethylbenzimidazol carbocyanine iodide) using a mitochondrial potential detection kit (Biocarta, San Diego, Calif.). Mitochondrial potential was determined as the ratio of red fluorescence (excitation 550 nm, emission 600 mn) and green fluorescence (excitation 485 nm, emission 535 nm) using a fluorescence microplate reader.

NADPH oxidase = NADPH oxidase expression in 3T3-L1 adipocytes; type: cell-based, murine; conditions: added to glucose 30 mmol/L, 48 hours; nifedipine 10 μmol/L
Procedure: (§5) 3T3-L1 preadipocytes were incubated at a density of 8000 cells/cm^2 (10 cm^2 dish) and grown in Dulbecco's modified Eagle's medium (DMEM) containing 10% FBS and antibiotics (adipocyte medium) at 37° C. in 5% CO2 in air. Confluent preadipocytes were induced to differentiate with a standard differentiation medium consisting of DMEM-F 10 (1:1, vol/vol) medium supplemented with 1% FBS, 1 μM dexamethasone, IBMX (0.5 mM) and antibiotics (1% Penicillin-Streptomycin). Preadipocytes were maintained in this differentiation medium for 3 days and subsequently cultured in adipocyte medium. Cultures were re-fed every 2-3 days to allow 90% of cells to reach full differentiation before conducting chemical treatment. Chemicals were freshly diluted in adipocyte medium before treatment. […] Cell viability was measured via trypan blue exclusion. Adipocyte 18s, cyclin A, NADPH oxidase, and UCP2 were quantitatively measured using a Smart Cycler Real Time PCR System (Cepheid, Sunnyvale, Calif.) with a TaqMan 1000 Core Reagent Kit (Applied Biosystems, Branchburg, N.J.). […] Reactions of quantitative RT-PCR for standards and unknown samples were also performed according to the instructions of Smart Cycler System (Cepheid, Sunnyvale, Calif.) and TaqMan Real Time PCR Core Kit (Applied Biosystems, Branchburg, N.J.). The mRNA quantitation for each sample was further normalized using the corresponding 18s quantitation.

cyclin A = assay: Cyclin A expression in 3T3-L1 adipocytes; type: cell-based, murine; conditions: added to glucose 30 mmol/L, 48 hours; nifedipine 10 μmol/L
Procedure: as §5

[5] = added to glucose 30 mmol/L, nifedipine 10 μmol/L

## O=[N+]([O-])c1ccc(O)c([N+](=O)[O-])c1 [DNP]
TNFα [1]
  effect on calcitriol stimulated TNFα expression: blocked
IL-6
  effect on calcitriol stimulated IL-6 expression: blocked

## COC(=O)C1=C(C)NC(C)=C(C(=O)OC)C1c1ccccc1[N+](=O)[O-] [nifedipine]
[2]; nifedipine 10 μmol/L with H2O2 100 nmol/L, p<0.003
  inhibition of H2O2 induced ROS production: 25%
TNFα [3]
  effect on TNFα expression, alone: no effect
IL-15
  effect on IL-15 expression: no effect
adiponectin
  effect on adiponectin expression: no effect

## Nc1nc2c(ncn2[C@@H]2O[C@H](COP(=O)(O)OP(=O)(O)O)[C@@H](O)[C@H]2O)c(=O)[nH]1 [GDP]
3T3-L1 adipocytes; GDP 100 μmol/L with H2O2 100 nmol/L, p<0.005
  augmentation of the stimulation of cell proliferation by H2O2: 183%
3T3-L1 adipocytes; [5]
  effect on glucose induced DNA synthesis: augmented
[2]; GDP 100 μmol/L with H2O2 100 nmol/L, p<0.01
  increase of ROS production compared to H2O2 treatment alone: 24%
[2]; [5]
  effect on high glucose induced ROS production: further stimulated ROS production compared to glucose alone
[4]
  augmentation of the H2O2 effect on mitochondrial potential: 10%
NADPH oxidase
  effect on NADPH oxidase expression: suppressed
Cyclin A
  effect on glucose stimulated cyclin A expression: augmented
